From ChEMBL document CHEMBL5729244, “Heterocycle compounds as Tyro3, Axl and MerTK (TAM) family of receptor tyrosine kinase inhibitors” (2022)

Assays:
[1] = molecular target: T1, Tyrosine-protein kinase receptor UFO (Homo sapiens, UniProt P30530)
T1 sequence (P30530 whole entry): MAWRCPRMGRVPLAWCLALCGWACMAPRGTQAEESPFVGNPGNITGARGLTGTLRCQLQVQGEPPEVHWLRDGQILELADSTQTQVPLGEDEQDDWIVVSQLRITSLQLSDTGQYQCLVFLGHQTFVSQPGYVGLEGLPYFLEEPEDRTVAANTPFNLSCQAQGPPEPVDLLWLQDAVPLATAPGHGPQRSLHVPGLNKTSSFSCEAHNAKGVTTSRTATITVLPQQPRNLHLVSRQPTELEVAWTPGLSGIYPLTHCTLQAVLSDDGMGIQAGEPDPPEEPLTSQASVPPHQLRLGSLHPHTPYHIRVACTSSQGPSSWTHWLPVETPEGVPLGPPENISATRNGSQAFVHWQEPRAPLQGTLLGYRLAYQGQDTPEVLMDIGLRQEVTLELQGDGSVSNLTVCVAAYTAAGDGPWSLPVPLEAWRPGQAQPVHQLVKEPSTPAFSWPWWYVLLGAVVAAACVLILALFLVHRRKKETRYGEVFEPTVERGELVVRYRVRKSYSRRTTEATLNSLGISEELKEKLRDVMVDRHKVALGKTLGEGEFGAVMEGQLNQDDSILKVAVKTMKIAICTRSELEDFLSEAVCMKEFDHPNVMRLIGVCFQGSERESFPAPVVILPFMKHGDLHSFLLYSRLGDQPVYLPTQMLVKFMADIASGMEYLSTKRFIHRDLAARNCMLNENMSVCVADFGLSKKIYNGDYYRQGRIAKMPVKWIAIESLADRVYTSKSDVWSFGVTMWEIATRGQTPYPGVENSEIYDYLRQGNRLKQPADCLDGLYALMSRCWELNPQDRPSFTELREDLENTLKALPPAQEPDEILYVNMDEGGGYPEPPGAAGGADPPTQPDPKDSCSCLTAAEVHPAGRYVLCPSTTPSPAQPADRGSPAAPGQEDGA

[2] = molecular target: T2, Tyrosine-protein kinase Mer (Homo sapiens, UniProt Q12866)
T2 sequence (Q12866 whole entry): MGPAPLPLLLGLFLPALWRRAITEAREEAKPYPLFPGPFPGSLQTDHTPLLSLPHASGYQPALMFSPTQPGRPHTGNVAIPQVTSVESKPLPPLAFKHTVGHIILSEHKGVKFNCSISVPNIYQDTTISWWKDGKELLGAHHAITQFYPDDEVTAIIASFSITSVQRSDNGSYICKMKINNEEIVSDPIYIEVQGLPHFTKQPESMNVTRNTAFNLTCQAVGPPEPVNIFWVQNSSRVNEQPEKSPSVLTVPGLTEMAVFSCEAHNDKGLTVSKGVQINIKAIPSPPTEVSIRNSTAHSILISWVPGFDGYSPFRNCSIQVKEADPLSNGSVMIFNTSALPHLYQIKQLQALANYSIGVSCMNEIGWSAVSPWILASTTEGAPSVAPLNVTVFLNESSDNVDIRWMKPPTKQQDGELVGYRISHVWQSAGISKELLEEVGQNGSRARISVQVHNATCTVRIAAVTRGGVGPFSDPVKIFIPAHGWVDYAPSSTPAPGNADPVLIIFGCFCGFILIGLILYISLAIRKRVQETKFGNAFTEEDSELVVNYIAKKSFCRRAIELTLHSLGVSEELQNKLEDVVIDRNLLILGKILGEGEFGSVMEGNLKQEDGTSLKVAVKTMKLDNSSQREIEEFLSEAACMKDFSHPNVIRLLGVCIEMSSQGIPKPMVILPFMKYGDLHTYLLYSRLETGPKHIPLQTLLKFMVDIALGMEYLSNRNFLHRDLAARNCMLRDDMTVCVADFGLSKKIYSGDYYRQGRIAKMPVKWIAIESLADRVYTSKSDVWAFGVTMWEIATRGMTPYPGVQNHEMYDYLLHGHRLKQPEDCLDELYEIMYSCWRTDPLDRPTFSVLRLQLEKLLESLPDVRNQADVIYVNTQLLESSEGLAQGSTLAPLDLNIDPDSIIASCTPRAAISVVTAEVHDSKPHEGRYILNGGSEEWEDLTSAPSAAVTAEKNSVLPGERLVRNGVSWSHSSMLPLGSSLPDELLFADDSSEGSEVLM

Row | Compound | IC50 [1] | IC50 [2]
1 | COc1nc(Nc2ccc(CN3CCC(C)CC3)cc2)nc2[nH]cc(-c3ccc(F)cc3F)c12 | < 30 nM | 
2 | COCCOc1nc(Nc2ccc(CN3CCN(C)CC3)cc2)nc2[nH]cc(-c3ccc4c(n3)CN(C)S4(=O)=O)c12 | < 30 nM | > 1000 nM
